Test [1] has as its system benzodiazepine receptors. The test is described as follows: in vivo binding to benzodiazepine receptors, Goeders et al (Test 2). To be noted: IP. As to the method: Measuring of in vivo binding to benzodiazepine receptors was carried out according to the method described by Goeders et al, Life Sciences (1985), Vol. 37, p. 345.
Test [2] has as its target benzodiazepine receptors. Briefly: Affinity for benzodiazepine receptors, displacement of ^3 H-labelled flunitrazepam in membranes from the rear portion of the brain in rats (Test 1). Particulars: 0.6×10^-9 mol of ^3 H-labelled flunitrazepam; membranes from the rear portion of rat brain; read-out: Test 1: concentration which inhibited 50% of the specific binding of ^3 H-labelled flunitrazepam (IC50). As to the method: The affinity of the active ingredients for the benzodiazepine receptors was measured using a radioactively labelled (^3 H) compound flunitrazepam,and a modified version of the method of Squires and Braestrup (Nature, 1977, Vol. 266, p. 732). The values given in Table 2 below are the concentration (mol×10^-9) of the compound under test which inhibited 50% of the specific binding of 0.6×10^-9 mol of ^3 H-labelled flunitrazepam in preparations of membranes from the rear portion of the brain in rats (IC50 values).

Each structure is given as a SMILES string. pIC50: −log10 of the molar value.

As to `CN1Cc2c(C(=O)C3CC3)ncn2-c2ccncc2C1=O` [Example 3, 5,6-dihydro-5-methyl-6-oxo-4H-imidazo [1,5-a]-pyrido-[3,4-f][1,4]-diazepin-3-yl cyclopropylmethanone], the “Test 2 ED50” value in test [1] is 0.13 mg/kg. For the same molecule, the pIC50 in test [2] was 6.98.

`CN1Cc2c(C(=O)C3CC3)ncn2-c2cccc(C3CC3)c2C1=O` [Example 1, 7-cyclopropyl-5,6-dihydro-5-methyl-6-oxo-4H-imidazo-[1,5-a][1,4]-benzodiazepin-3-yl cyclopropyl methanone]: the “Test 2 ED50” value in test [1] is on record as 0.15 mg/kg. In addition, the pIC50 in test [2] was 7.44.

Consider `CN1Cc2c(C(=O)C3CC3)ncn2-c2ccnc(C3CC3)c2C1=O` [Example 2, 7-cyclopropyl-5,6-dihydro-5-methyl-6-oxo-4H-imidazo-[1,5-a]-pyrido [3,4-f]diazepin-3-yl cyclopropyl methanone], for which the “Test 2 ED50” value in test [1] turned out to be 0.08 mg/kg. For the same molecule, the pIC50 in test [2] is 7.59.

Values taken from US5247079A, “7-cyclopropyl-imidazodiazepines” (Roussel Uclaf, priority 1990, dated 1993).
